Source: EP0106571A2, “Prophylactic substance or composition” (priority 1982, dated 1984)
Read-outs that look alike come from different tables or passages of the source.

Experiments:
[1] = test system: human hepatoma cells; experiment: cells; conditions: for inhibition at 20 µg/mL: Homo sapiens, read-out: Reduction in growth rate (%), daily GLA 20 µg/ml; for GLA supplemented cell number (x10^4) Mean: daily GLA 20 µg/ml, n = 4
Experimental: To control flasks only 20µl of the sodium carbonate vehicle was added.
Cells: Cells of the human primary carcinoma of the liver line were provided by Dr. J.J. Alexander of the Division of Virology, Department of Microbiology, Medical University of South Africa. These cells were maintained in Grenier plastic flasks in McCoys 5A medium as described in Example I.
The cells were seeded in the standard growth medium from stock cultures into Greiner 50 ml plastic flasks at subconfluent densities ranging from 2 x 10^5 to 3 x 10^5 cells per flask. […] These culture flasks were included in a humidified atmosphere of 5% CO2, 95% air at 37°. At the end of each experiment the detached, dead cells were discarded with the culture medium. The living attached cells were trypsinised and then counted using a Coulter counter. Cell viability was checked by trypan blue dye exclusion. In addition, the culture flasks were viewed and photographed daily under a Nikon diaphot inverted phase microscope.
The cells were counted after 4 days in culture.

[2] = test system: BL6 mouse melanoma cells; experiment: cells
Experimental: (§1) Thus each culture set comprised 13 separate experiments. […] Each set of dosages was duplicated for both cell lines. Thus, a total of 280 separate cultures were used for these determinations. For statistical treatment an average value of each duplicate was used as n = I. • (i) Growth Curves Protocol: The cells were seeded in a standard growth medium (McCoys 5A medium) from stock cultures into Greiner 50 ml plastic flasks at subconfluent densities ranging from I x 10^5 cells/flask.
Plates were incubated in a 5% C02 humidified atmosphere at 37 °C. For the final 24 hours, 0.4 µCl of [6^-3H]-thymidine or I µCl of L-[methyl -^3H] -methionine (New England Nuclear, Boston, Mass) was added to each incubation mixture on the micrplate. The cells were then collected using a Skatron automatic harvester onto glass fibre reinforced resin filters. The filters were dried and dissolved in 10 ml Picofluor ^TM30 (Packard). The [6-^3H] -thymidine incorporation into DNA and the L-[methyl-^3H] -methionine incorporation into proteins was counted on a Packard Tri-Carb scintillation counter.

[3] = test system: BL6 mouse melanoma cells; conditions: GLA 20 µg/ml daily for two weeks
Experimental: Only 20µI of the sodium carbonate vehicle was added to control flasks.
Malignant BL6 mouse melanoma cells were maintained in Griener plastic flasks (Labortechnik) containing 10% fetal calf serum (Flor Laboratories) and antibiotics. Stock cultures were refed twice weekly and were subcultured at. weekly intervals or sooner if required. The BL6 mouse melanoma cells were supplied by Dr. C. Albrecht, Department of Pharmacology, University of Stellenbosch, South Africa.
Duplicates were set up for the three densities.
The culture flasks were incubated in a humidified atmosphere of 5% C02, 95% air at 37°C. At the end of the two weeks period the culture flasks were stained using a 0.1% Amidoschwarz stain solution.

[4] = test system: Human osteogenic sarcoma cells; experiment: Colony growth over three weeks with fatty acids or prostaglandins, Amidoschwarz stain; format: cell-based
Experimental: Human osteogenic sarcoma cells were seeded into 50 ml Greiner plastic flasks and maintained exactly as explained in Example 4.
At the end of three weeks the culture flasks were stained with a 0.1% Amidoschwarz stain solution.

[5] = test system: benign bovine kidney cells (MDBK); conditions: for Cell count (x 10^6) + GLA Mean: MDBK, seeding density 0,3, daily GLA, n = 4
From the text: (§2) Cells: MG63. osteoid-sarcoma cells were obtained from Flow Laboratories. Oesophageal carcinoma cells were obtained from Prof. J. Alexander of the Department of Microbiology at Medunsa, South Africa. Control benign bovine kidney cells (MDBK) were from the same stock that were used in the previous examples.

[6] = test system: MG63 osteoid-sarcoma cells; conditions: for Cell count (x 10^6) + GLA Mean: MG63, seeding density 0,3, daily GLA, n = 4
From the text: as §2

[7] = test system: Oesophageal carcinoma cells; conditions: 10 µg GLA per day for six days; for Cell count (x 10^6) + GLA Mean: Oesophageal Carcinoma, seeding density 0,14, n = 4
From the text: as §2

[8] = test system: MDBK bovine kidney cells; conditions: any of the GLA doses (0.5 to 10 µg/ml), 7 days
Experimental: as §1
(§3) These cultures flasks were incubated in a humidified atmosphere of 5% C02, 95% air at 37°C for 7 days. After this period cell counts and viabilities were determined, the latter by trypan blue dye exclusion.
(§4) Data Reduction and Statistical Analyses: Using the values of cell counts obtained as described above, the difference of each cell count from its control was expressed as a perecentage of the control. As the growth curves were repeated several times for each dose for both normal and cancer cells, the mean value and standard error was determined for each dose. […] For the purpose of presentation these percentage differences are expressed as the percentage reduction of growth rate (-GR%).

[9] = test system: BL6 mouse melanoma cells; conditions: GLA doses above 7 µg/ml, single dose, 7 days, plateau of the curve
Experimental: as §1, §3, §4

Compound: CCCCC/C=C\C/C=C\C/C=C\CCCCC(=O)O [GLA, gamma linolenic acid]
- inhibition at 20 µg/mL ([1]; 24 h, day 1, versus control flasks (negative = more cells than control)): -44%
- inhibition at 20 µg/mL ([1]; 48 h, day 2, versus control flasks): 66%
- inhibition at 20 µg/mL ([1]; 72 h, day 3, versus control flasks): 78%
- inhibition at 20 µg/mL ([1]; 96 h, day 4 Run 1, versus control flasks): 87%
- inhibition at 20 µg/mL ([1]; 96 h, day 4 Run 2, versus control flasks): 78%
- GLA supplemented cell number (x10^4) Mean ([1]; day 1): 8,12 x10^4
- GLA supplemented cell number (x10^4) Mean ([1]; day 2): 3,79 x10^4
- GLA supplemented cell number (x10^4) Mean ([1]; day 3): 3,35 x10^4
- GLA supplemented cell number (x10^4) Mean ([1]; day 4 Run 1): 2,96 x10^4
- GLA supplemented cell number (x10^4) Mean ([1]; day 4 Run 2): 7,25 x10^4
- difference between growth rates of GLA supplemented and control cells ([1]; single dose of GLA 20 µg/ml on day 1, after four days): no significant difference
- cell count ([1]; single dose of GLA 20 µg/ml on day 1, counted after four days, n = 8, spread printed ± 4.85): 19.81 x 104
- inhibition at 10 µg/mL ([2]; read-out: reduction in methionine uptake): 58.9%
- inhibition at 10 µg/mL ([2]; read-out: reduction in thymidine uptake): 59.1%
- growth and proliferation [3]: completely suppressed
- colonies observed ([3]; 500, 1,000 or 2,000 cells seeded per flask): not a single colony
- growth suppressive effect on the cancer cells in culture (summary) ([4]; 20 µg/ml of medium added every second day): complete growth suppressive effect
- colonies in supplemented cultures ([4]; 20 µg/ml of medium added every second day, 500, 1,000 and 2,000 cell density cultures): completely devoid of any colonies
- mean number of GLA supplemented cells compared with unsupplemented cells ([5]; MDBK cells, end of the seven day period): exceed
- Cell count (x 10^6) + GLA Mean ([5]; day 2): 0,43 x 10^6
- Cell count (x 10^6) + GLA Mean ([5]; day 3): 0,70 x 10^6
- Cell count (x 10^6) + GLA Mean ([5]; day 6): 1,53 x 10^6
- Cell count (x 10^6) + GLA Mean ([5]; day 7): 1,81 x 10^6
- Cell count (x 10^6) + GLA Mean ([6]; day 2): 0,19 x 10^6
- Cell count (x 10^6) + GLA Mean ([6]; day 3): 0,31 x 10^6
- Cell count (x 10^6) + GLA Mean ([6]; day 4): 0,48 x 10^6
- growth suppressive effect ([6]; MG63 cells, daily GLA supplementation, over seven days, versus untreated MG63 cells, 10080 min): 76%
- Cell count (x 10^6) + GLA Mean ([7]; day 2): 0,14 x 10^6
- Cell count (x 10^6) + GLA Mean ([7]; day 3): 0,22 x 10^6
- Cell count (x 10^6) + GLA Mean ([7]; day 4): 0,31 x 10^6
- Cell count (x 10^6) + GLA Mean ([7]; day 5): 0,68 x 10^6
- Cell count (x 10^6) + GLA Mean ([7]; day 6): 0,63 x 10^6
- Cell count (x 10^6) + GLA Mean ([7]; day 7): 1,82 x 10^6
- Cell count (x 10^6) + GLA Mean ([7]; day 8): 2.04 x 10^6
- growth suppressive effect ([7]; oesophageal carcinoma cells, end of the eight day period, 11520 min): 69%
- response of growth rate to GLA [8]: no apparent response
- percentage reduction of growth rate (-GR%) [9]: about 70%
